According to article PMC4130425, “Therapeutic drug monitoring of voriconazole: a case report of multiple drug interactions in a patient with an increased CYP2C19 activity” (AIDS Research and Therapy, 2014):
Read-outs that look alike come from different tables or passages of the source.

How the values were obtained:
[1] = parameters: method as in PMID 22751544; settings: target trough range; cited from earlier work
[2] = human, in vivo
Protocol: The patient was genotyped for CYP2C19.
Time course of (A) voriconazole i. v. dosage administration, (B) comedication with esomeprazole or ranitidine and (C) associated antiretroviral therapy. Voriconazole plasma trough concentrations. qd: once a day; b.i.d.: Twice a day.
Ranitidine was replaced by esomeprazole 40 mg IV bid.

[3] = molecular target: T1, CYP2C19 (Homo sapiens, UniProt P33261); assay: CYP2C19 phenotyping with 2 mg omeprazole (omeprazole metabolic ratio); assay type: in vivo; settings: while on CYP2C19 inhibitor esomeprazole, cut-off = 5, showed decreased CYP2C19 activity
T1 construct: endogenous in cells; host or cells: patient in vivo (endogenous enzyme)
T1 sequence (P33261 whole entry): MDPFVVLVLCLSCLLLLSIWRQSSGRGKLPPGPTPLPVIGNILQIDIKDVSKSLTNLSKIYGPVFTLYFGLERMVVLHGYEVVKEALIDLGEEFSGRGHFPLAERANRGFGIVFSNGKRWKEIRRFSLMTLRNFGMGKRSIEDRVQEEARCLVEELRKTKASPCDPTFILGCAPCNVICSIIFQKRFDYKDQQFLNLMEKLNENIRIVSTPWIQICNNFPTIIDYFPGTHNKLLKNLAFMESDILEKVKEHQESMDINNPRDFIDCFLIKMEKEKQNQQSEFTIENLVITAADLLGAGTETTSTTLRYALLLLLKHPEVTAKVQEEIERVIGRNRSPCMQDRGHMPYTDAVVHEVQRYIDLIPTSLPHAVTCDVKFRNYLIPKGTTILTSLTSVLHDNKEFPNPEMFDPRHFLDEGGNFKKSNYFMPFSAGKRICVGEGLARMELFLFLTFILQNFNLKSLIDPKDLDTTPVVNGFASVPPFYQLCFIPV

C[C@@H](c1ncncc1F)[C@](O)(Cn1cncn1)c1ccc(F)cc1F [Voriconazole]
Voriconazole C0 therapeutic range [1]: 1.0 to 5.0 µg/mL | Voriconazole first trough concentration (C0) ([2]; female): < 1.0 µg/mL | Voriconazole C0 versus therapeutic range [2]: below the therapeutic range | Voriconazole C0 versus therapeutic range ([2]; 2.5 mg/kg): within the therapeutic range

COc1ccc2[nH]c([S+]([O-])Cc3ncc(C)c(OC)c3C)nc2c1 (centres unmarked) [omeprazole]
omeprazole metabolic ratio [3]: 10.5
